Measured values reported in article PMC4490784, “Compensatory induction of MYC expression by sustained CDK9 inhibition via a BRD4-dependent mechanism” (eLife, 2015).

Columns and labels:
Test in all cases: KINOMEscan binding assay
LTK = biological target: T1, LTK (Homo sapiens, UniProt P29376); conditions: read-out: % Retention on Solid Support
T1 construct: purchased DiscoveRx KINOMEscan
Method in brief: (§1)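 Two inhibitor concentrations (1 and 10 µM) were run. Binding to each kinase was assessed by competition with an active site-directed probe, covering upwards of 400 kinases.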

MUSK = biological target: T2, MUSK (Homo sapiens, UniProt O15146); conditions: read-out: % Retention on Solid Support
T2 construct: purchased DiscoveRx KINOMEscan
Method in brief: as §1

BTK = biological target: T3, BTK (Homo sapiens, UniProt Q06187)
T3 construct: purchased DiscoveRx KINOMEscan
T3 sequence (Q06187 whole entry): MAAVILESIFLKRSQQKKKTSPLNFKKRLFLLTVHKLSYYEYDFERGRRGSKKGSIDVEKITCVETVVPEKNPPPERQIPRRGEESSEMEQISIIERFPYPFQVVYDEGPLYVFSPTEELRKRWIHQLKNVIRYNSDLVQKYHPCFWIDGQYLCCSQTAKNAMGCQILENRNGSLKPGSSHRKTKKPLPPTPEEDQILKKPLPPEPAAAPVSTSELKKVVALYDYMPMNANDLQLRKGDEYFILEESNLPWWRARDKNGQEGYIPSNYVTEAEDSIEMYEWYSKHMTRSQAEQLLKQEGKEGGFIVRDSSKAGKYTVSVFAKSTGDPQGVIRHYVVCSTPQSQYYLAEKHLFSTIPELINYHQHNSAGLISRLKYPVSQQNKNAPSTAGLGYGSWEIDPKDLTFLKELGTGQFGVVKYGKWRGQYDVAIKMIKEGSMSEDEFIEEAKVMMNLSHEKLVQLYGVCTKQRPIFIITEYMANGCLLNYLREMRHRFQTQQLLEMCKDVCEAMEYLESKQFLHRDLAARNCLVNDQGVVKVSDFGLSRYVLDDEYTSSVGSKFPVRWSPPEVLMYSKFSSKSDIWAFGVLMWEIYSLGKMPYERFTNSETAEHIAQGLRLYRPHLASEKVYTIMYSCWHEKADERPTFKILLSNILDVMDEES
Method in brief: as §1

CAMK1 = biological target: T4, CAMK1 (Homo sapiens, UniProt Q14012); conditions: read-out: % Retention on Solid Support
T4 construct: purchased DiscoveRx KINOMEscan
Method in brief: as §1

FGFR1 = biological target: T5, FGFR1 (Homo sapiens, UniProt P11362); conditions: read-out: % Retention on Solid Support
T5 construct: purchased DiscoveRx KINOMEscan
T5 sequence (P11362 22-822): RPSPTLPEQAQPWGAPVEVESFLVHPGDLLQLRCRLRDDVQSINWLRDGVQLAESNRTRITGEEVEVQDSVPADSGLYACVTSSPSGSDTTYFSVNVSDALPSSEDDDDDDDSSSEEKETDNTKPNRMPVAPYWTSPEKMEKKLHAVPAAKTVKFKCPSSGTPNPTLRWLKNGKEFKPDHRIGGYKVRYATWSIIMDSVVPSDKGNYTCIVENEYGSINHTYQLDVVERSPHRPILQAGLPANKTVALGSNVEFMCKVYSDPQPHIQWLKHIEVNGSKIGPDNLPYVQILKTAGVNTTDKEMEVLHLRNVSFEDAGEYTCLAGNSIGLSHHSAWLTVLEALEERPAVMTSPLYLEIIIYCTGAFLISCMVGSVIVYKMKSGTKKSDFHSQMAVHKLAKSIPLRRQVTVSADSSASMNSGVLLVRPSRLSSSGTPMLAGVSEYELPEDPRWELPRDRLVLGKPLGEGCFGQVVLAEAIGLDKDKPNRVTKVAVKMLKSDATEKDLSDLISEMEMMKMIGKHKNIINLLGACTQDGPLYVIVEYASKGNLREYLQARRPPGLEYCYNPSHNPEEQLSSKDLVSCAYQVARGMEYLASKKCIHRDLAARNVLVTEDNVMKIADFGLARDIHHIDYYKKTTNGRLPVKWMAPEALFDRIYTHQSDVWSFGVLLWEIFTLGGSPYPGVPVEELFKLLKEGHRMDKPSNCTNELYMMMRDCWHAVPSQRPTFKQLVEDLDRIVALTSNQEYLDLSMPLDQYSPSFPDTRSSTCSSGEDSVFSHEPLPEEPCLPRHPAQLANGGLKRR
Method in brief: as §1

DCAMKL3 = biological target: T6, DCAMKL3 (Homo sapiens, UniProt Q9C098); conditions: read-out: % Retention on Solid Support
T6 construct: purchased DiscoveRx KINOMEscan
T6 sequence (Q9C098 whole entry): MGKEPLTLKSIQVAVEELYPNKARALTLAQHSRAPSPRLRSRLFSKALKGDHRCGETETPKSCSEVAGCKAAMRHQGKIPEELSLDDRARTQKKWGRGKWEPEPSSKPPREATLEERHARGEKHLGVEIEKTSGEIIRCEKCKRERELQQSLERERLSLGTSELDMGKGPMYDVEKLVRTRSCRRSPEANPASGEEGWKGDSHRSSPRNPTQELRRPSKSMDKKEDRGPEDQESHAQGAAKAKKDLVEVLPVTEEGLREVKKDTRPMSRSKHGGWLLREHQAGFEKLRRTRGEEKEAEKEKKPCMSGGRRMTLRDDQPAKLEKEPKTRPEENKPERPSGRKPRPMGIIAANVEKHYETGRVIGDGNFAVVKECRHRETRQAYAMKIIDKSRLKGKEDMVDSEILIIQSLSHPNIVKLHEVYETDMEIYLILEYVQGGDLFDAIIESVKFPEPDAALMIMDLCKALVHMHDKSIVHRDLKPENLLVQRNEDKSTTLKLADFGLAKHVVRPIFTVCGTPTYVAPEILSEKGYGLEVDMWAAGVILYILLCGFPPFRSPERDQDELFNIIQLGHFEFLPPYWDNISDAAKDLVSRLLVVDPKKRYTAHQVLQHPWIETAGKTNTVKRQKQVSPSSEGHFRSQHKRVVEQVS
Method in brief: as §1

MYLK4 = biological target: T7, MYLK4 (Homo sapiens, UniProt Q86YV6); conditions: read-out: % Retention on Solid Support
T7 construct: purchased DiscoveRx KINOMEscan
T7 sequence (Q86YV6 whole entry): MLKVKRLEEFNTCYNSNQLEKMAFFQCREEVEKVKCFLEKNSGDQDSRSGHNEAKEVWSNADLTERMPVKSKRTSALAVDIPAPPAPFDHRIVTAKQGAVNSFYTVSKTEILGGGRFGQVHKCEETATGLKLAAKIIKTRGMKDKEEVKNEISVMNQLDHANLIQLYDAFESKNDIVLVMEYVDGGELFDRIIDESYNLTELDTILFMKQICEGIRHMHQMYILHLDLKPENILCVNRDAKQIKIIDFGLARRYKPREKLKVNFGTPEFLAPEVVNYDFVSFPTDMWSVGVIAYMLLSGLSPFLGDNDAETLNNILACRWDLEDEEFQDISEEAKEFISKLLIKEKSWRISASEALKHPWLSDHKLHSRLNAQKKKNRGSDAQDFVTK
Method in brief: as §1

PCTK3 = biological target: T8, PCTK3 (Homo sapiens, UniProt Q07002); conditions: read-out: % Retention on Solid Support
T8 construct: purchased DiscoveRx KINOMEscan
Method in brief: as §1

PHKG2 = biological target: T9, PHKG2 (Homo sapiens, UniProt P15735); conditions: read-out: % Retention on Solid Support
T9 construct: purchased DiscoveRx KINOMEscan
Method in brief: as §1

CSNK1G3 = biological target: T10, CSNK1G3 (Homo sapiens, UniProt Q9Y6M4)
T10 construct: purchased DiscoveRx KINOMEscan
Method in brief: as §1

[1] = biological target: T11, ABL1(F317I)-nonphosphorylated (Homo sapiens, UniProt P00519, F317I); conditions: read-out: % Retention on Solid Support
T11 construct: purchased DiscoveRx KINOMEscan
Method in brief: as §1

MST4 = biological target: T12, MST4 (Homo sapiens, UniProt Q9P289); conditions: read-out: % Retention on Solid Support
T12 construct: purchased DiscoveRx KINOMEscan
Method in brief: as §1

CDK3 = biological target: T13, CDK3 (Homo sapiens, UniProt Q00526)
T13 construct: purchased DiscoveRx KINOMEscan
T13 sequence (Q00526 whole entry): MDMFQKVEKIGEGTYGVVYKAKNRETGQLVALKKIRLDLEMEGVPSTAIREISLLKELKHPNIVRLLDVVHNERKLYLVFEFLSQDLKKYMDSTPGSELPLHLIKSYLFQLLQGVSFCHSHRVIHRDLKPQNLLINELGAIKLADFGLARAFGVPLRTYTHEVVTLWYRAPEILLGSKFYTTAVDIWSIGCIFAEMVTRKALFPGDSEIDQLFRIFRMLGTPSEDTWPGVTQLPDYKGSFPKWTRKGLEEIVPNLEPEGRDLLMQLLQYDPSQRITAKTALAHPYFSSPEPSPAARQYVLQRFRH
Method in brief: as §1

TESK1 = biological target: T14, TESK1 (Homo sapiens, UniProt Q15569); conditions: read-out: % Retention on Solid Support
T14 construct: purchased DiscoveRx KINOMEscan
T14 sequence (Q15569 whole entry): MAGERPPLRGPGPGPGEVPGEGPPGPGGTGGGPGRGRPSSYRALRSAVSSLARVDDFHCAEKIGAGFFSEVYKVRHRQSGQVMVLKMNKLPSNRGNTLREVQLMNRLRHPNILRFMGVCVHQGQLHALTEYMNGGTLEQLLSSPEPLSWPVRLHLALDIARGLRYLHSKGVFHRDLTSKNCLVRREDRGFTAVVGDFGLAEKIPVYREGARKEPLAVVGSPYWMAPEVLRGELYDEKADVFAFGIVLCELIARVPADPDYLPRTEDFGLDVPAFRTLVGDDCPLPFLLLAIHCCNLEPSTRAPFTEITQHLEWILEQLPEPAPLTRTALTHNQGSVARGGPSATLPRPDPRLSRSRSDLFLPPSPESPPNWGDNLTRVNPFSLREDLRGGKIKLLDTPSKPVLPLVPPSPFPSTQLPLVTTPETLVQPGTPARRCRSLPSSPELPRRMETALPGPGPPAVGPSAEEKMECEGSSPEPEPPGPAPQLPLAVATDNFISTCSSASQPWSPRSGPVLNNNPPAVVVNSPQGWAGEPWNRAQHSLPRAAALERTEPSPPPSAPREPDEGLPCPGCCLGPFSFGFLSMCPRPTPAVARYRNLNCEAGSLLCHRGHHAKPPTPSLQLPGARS
Method in brief: as §1

VRK2 = biological target: T15, VRK2 (Homo sapiens, UniProt Q86Y07); conditions: 1 µM i-CDK9; read-out: % Retention on Solid Support
T15 construct: purchased DiscoveRx KINOMEscan
Method in brief: as §1

ROCK1 = biological target: T16, ROCK1 (Homo sapiens, UniProt Q13464); conditions: read-out: % Retention on Solid Support
T16 construct: purchased DiscoveRx KINOMEscan
Method in brief: as §1

TNIK = biological target: T17, TNIK (Homo sapiens, UniProt Q9UKE5); conditions: read-out: % Retention on Solid Support
T17 construct: purchased DiscoveRx KINOMEscan
Method in brief: as §1

ULK2 = biological target: T18, ULK2 (Homo sapiens, UniProt Q8IYT8); conditions: read-out: % Retention on Solid Support
T18 construct: purchased DiscoveRx KINOMEscan
Method in brief: as §1

TBK1 = biological target: T19, TBK1 (Homo sapiens, UniProt Q9UHD2); conditions: read-out: % Retention on Solid Support
T19 construct: purchased DiscoveRx KINOMEscan
Method in brief: as §1

MINK = biological target: T20, MINK (Homo sapiens, UniProt Q8N4C8); conditions: read-out: % Retention on Solid Support
T20 construct: purchased DiscoveRx KINOMEscan
Method in brief: as §1

DDR2 = biological target: T21, DDR2 (Homo sapiens, UniProt Q16832); conditions: read-out: % Retention on Solid Support
T21 construct: purchased DiscoveRx KINOMEscan
Method in brief: as §1

MEK6 = biological target: T22, MEK6 (Homo sapiens, UniProt P52564); conditions: read-out: % Retention on Solid Support
T22 construct: purchased DiscoveRx KINOMEscan
Method in brief: as §1

PIK3CA(H1047Y) = biological target: T23, PIK3CA(H1047Y) (Homo sapiens, UniProt P42336, H1047Y); conditions: read-out: % Retention on Solid Support
T23 construct: purchased DiscoveRx KINOMEscan
Method in brief: as §1

CSNK1G2 = biological target: T24, CSNK1G2 (Homo sapiens, UniProt P78368)
T24 construct: purchased DiscoveRx KINOMEscan
Method in brief: as §1

GRK7 = biological target: T25, GRK7 (Homo sapiens, UniProt Q8WTQ7); conditions: read-out: % Retention on Solid Support
T25 construct: purchased DiscoveRx KINOMEscan
Method in brief: as §1

CDC2L2 = biological target: T26, CDC2L2 (Homo sapiens, UniProt Q9UQ88); conditions: read-out: % Retention on Solid Support
T26 construct: purchased DiscoveRx KINOMEscan
T26 sequence (Q9UQ88 whole entry): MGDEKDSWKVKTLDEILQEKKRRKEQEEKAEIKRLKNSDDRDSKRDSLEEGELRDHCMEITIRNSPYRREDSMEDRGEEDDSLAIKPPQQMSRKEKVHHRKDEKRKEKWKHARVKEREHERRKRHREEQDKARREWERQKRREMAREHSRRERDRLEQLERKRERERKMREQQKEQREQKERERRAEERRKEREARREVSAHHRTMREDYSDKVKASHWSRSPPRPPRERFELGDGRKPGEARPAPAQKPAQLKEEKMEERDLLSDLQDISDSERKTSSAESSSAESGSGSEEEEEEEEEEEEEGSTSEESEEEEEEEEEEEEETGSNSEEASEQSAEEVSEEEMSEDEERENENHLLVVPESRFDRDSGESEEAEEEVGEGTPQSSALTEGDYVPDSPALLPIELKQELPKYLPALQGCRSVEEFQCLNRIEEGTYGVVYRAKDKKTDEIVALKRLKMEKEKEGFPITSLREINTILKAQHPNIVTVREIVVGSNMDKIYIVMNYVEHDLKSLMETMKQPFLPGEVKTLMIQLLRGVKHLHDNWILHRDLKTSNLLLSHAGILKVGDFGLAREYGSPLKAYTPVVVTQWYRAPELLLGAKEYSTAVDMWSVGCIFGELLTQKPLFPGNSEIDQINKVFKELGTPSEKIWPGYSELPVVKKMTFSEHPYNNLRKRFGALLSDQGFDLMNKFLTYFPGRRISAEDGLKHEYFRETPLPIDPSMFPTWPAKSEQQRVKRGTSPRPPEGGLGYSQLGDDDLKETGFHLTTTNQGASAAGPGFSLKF
Method in brief: as §1

ADCK4 = biological target: T27, ADCK4 (Homo sapiens, UniProt Q96D53); conditions: read-out: % Retention on Solid Support
T27 construct: purchased DiscoveRx KINOMEscan
T27 sequence (Q96D53 whole entry): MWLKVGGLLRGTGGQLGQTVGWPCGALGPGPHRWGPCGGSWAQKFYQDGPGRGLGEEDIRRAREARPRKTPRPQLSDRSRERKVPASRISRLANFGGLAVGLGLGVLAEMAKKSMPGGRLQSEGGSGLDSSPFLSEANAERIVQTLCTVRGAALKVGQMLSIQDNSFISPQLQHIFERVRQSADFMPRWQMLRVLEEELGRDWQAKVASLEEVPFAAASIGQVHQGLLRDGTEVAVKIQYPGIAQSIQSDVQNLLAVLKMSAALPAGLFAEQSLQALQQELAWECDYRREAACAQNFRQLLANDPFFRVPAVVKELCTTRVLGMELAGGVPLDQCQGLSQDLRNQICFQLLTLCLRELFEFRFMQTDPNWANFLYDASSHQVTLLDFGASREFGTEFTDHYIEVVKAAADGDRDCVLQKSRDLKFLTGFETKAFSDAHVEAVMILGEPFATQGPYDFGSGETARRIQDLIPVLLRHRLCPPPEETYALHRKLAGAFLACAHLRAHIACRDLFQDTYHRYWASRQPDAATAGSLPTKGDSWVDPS
Method in brief: as §1

INSRR = biological target: T28, INSRR (Homo sapiens, UniProt P14616); conditions: read-out: % Retention on Solid Support
T28 construct: purchased DiscoveRx KINOMEscan
Method in brief: as §1

EPHB2 = biological target: T29, EPHB2 (Homo sapiens, UniProt P29323)
T29 construct: purchased DiscoveRx KINOMEscan
Method in brief: as §1

## N[C@H]1CC[C@H](Nc2cc(-c3cccc(NCc4cccc(F)c4)n3)c(Cl)cn2)CC1 [i-CDK9, N2′-(trans-4-aminocyclohexyl)-5′-chloro-N6-(3-fluorobenzyl)-2,4′-bipyridine-2′,6-diamine]
LTK; 1 µM i-CDK9
  remaining binding at 1 µM: 92%
LTK; 10 µM i-CDK9
  remaining binding at 10 µM: 100%
MUSK; 1 µM i-CDK9
  remaining binding at 1 µM: 88%
MUSK; 10 µM i-CDK9
  remaining binding at 10 µM: 100%
BTK; 1 µM i-CDK9
  % Retention on Solid Support: 100%
BTK; 10 µM i-CDK9
  % Retention on Solid Support: 100%
CAMK1; 1 µM i-CDK9
  remaining binding at 1 µM: 96%
CAMK1; 10 µM i-CDK9
  remaining binding at 10 µM: 100%
FGFR1; 1 µM i-CDK9
  remaining binding at 1 µM: 100%
FGFR1; 10 µM i-CDK9
  remaining binding at 10 µM: 100%
DCAMKL3; 1 µM i-CDK9
  remaining binding at 1 µM: 100%
DCAMKL3; 10 µM i-CDK9
  remaining binding at 10 µM: 63%
MYLK4; 1 µM i-CDK9
  remaining binding at 1 µM: 94%
MYLK4; 10 µM i-CDK9
  remaining binding at 10 µM: 73%
PCTK3; 1 µM i-CDK9
  remaining binding at 1 µM: 33%
PCTK3; 10 µM i-CDK9
  remaining binding at 10 µM: 0.15%
PHKG2; 1 µM i-CDK9
  remaining binding at 1 µM: 100%
PHKG2; 10 µM i-CDK9
  remaining binding at 10 µM: 72%
CSNK1G3; 1 µM i-CDK9
  % Retention on Solid Support: 91%
CSNK1G3; 10 µM i-CDK9
  % Retention on Solid Support: 63%
[1]; 1 µM i-CDK9
  remaining binding at 1 µM: 99%
[1]; 10 µM i-CDK9
  remaining binding at 10 µM: 75%
MST4; 1 µM i-CDK9
  remaining binding at 1 µM: 100%
MST4; 10 µM i-CDK9
  remaining binding at 10 µM: 100%
CDK3; 1 µM i-CDK9
  % Retention on Solid Support: 57%
CDK3; 10 µM i-CDK9
  % Retention on Solid Support: 16%
TESK1; 1 µM i-CDK9
  remaining binding at 1 µM: 100%
TESK1; 10 µM i-CDK9
  remaining binding at 10 µM: 57%
VRK2
  remaining binding at 1 µM: 100%
ROCK1; 1 µM i-CDK9
  remaining binding at 1 µM: 100%
ROCK1; 10 µM i-CDK9
  remaining binding at 10 µM: 93%
TNIK; 1 µM i-CDK9
  remaining binding at 1 µM: 72%
TNIK; 10 µM i-CDK9
  remaining binding at 10 µM: 36%
ULK2; 1 µM i-CDK9
  remaining binding at 1 µM: 100%
ULK2; 10 µM i-CDK9
  remaining binding at 10 µM: 100%
TBK1; 1 µM i-CDK9
  remaining binding at 1 µM: 100%
TBK1; 10 µM i-CDK9
  remaining binding at 10 µM: 100%
MINK; 1 µM i-CDK9
  remaining binding at 1 µM: 100%
MINK; 10 µM i-CDK9
  remaining binding at 10 µM: 65%
DDR2; 1 µM i-CDK9
  remaining binding at 1 µM: 100%
DDR2; 10 µM i-CDK9
  remaining binding at 10 µM: 92%
MEK6; 1 µM i-CDK9
  remaining binding at 1 µM: 96%
MEK6; 10 µM i-CDK9
  remaining binding at 10 µM: 100%
PIK3CA(H1047Y); 1 µM i-CDK9
  remaining binding at 1 µM: 100%
PIK3CA(H1047Y); 10 µM i-CDK9
  remaining binding at 10 µM: 100%
CSNK1G2; 1 µM i-CDK9
  % Retention on Solid Support: 100%
CSNK1G2; 10 µM i-CDK9
  % Retention on Solid Support: 66%
GRK7; 1 µM i-CDK9
  remaining binding at 1 µM: 100%
GRK7; 10 µM i-CDK9
  remaining binding at 10 µM: 84%
CDC2L2; 1 µM i-CDK9
  remaining binding at 1 µM: 100%
CDC2L2; 10 µM i-CDK9
  remaining binding at 10 µM: 33%
ADCK4; 1 µM i-CDK9
  remaining binding at 1 µM: 99%
ADCK4; 10 µM i-CDK9
  remaining binding at 10 µM: 48%
INSRR; 1 µM i-CDK9
  remaining binding at 1 µM: 92%
INSRR; 10 µM i-CDK9
  remaining binding at 10 µM: 97%
EPHB2; 1 µM i-CDK9
  % Retention on Solid Support: 100%
EPHB2; 10 µM i-CDK9
  % Retention on Solid Support: 66%
